These results are taken from ChEMBL document CHEMBL5291721, “A preclinical secondary pharmacology resource illuminates target-adverse drug reaction associations of marketed drugs” (Nat Commun, 2023).

SMILES strings stand for the structures.

Targets include Cannabinoid receptor 1 (Homo sapiens, UniProt P21554); Vasopressin V2 receptor (Homo sapiens, UniProt P30518); Mu-type opioid receptor (Homo sapiens, UniProt P35372).
Experiment [1] concerns the target Voltage-dependent L-type calcium channel subunit alpha-1C (Rattus norvegicus, UniProt P22002). The format is functional.
The target in experiment [2] is Kappa-type opioid receptor (Homo sapiens, UniProt P41145).
The next experiment deals with T1, Progesterone receptor (Homo sapiens, UniProt P06401).
T1 sequence (P06401 whole entry): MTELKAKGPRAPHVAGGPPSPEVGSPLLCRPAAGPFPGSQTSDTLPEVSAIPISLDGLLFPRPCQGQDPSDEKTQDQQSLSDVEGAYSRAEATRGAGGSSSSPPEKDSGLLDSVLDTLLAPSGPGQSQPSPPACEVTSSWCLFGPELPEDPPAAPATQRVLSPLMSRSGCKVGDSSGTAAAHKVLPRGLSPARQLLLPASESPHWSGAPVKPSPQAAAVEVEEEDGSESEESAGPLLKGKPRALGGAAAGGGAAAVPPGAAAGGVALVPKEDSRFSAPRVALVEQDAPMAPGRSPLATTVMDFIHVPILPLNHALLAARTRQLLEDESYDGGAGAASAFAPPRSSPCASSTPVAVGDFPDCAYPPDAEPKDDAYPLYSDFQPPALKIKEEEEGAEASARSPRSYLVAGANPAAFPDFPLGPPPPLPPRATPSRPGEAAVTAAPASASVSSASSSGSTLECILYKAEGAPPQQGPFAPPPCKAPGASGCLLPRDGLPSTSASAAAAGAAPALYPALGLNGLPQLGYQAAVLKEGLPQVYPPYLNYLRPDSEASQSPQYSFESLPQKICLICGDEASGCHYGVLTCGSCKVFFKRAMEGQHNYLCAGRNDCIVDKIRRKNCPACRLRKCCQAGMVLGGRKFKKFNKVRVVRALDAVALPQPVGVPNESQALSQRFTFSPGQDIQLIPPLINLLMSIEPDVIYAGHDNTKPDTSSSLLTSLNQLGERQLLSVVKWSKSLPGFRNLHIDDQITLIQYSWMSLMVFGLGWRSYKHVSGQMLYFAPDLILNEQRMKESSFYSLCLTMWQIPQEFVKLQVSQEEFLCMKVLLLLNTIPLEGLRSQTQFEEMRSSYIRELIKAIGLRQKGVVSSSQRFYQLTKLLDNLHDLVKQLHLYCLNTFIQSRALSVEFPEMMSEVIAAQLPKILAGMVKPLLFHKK

Experiment [3] addresses T2, Sodium-dependent serotonin transporter (Homo sapiens, UniProt P31645).
The target of experiment [4] is T2, Sodium-dependent serotonin transporter. The source holds these as a separate data set.
The target of experiment [5] is Prostaglandin G/H synthase 1 (Homo sapiens, UniProt P23219). The format is functional.
Chain of Prostaglandin G/H synthase 1 (P23219 whole entry): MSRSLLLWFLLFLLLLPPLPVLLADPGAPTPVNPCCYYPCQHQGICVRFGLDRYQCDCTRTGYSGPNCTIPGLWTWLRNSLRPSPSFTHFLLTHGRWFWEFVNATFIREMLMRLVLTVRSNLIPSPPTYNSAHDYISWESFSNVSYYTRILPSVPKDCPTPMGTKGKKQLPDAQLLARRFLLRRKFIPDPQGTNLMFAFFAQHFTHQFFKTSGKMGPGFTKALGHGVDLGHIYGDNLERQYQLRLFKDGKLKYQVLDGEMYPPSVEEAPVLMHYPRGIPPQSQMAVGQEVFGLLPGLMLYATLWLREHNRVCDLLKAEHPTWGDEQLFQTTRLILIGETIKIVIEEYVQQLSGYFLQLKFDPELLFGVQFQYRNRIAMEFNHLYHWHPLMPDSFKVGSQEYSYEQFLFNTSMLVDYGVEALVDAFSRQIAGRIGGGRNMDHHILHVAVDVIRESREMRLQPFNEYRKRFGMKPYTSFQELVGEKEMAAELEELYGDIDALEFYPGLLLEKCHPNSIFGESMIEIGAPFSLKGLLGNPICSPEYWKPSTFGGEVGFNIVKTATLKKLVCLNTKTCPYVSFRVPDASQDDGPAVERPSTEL
The target of another experiment is T3, Thromboxane A2 receptor (Homo sapiens, UniProt P21731).
T3 sequence (P21731 whole entry): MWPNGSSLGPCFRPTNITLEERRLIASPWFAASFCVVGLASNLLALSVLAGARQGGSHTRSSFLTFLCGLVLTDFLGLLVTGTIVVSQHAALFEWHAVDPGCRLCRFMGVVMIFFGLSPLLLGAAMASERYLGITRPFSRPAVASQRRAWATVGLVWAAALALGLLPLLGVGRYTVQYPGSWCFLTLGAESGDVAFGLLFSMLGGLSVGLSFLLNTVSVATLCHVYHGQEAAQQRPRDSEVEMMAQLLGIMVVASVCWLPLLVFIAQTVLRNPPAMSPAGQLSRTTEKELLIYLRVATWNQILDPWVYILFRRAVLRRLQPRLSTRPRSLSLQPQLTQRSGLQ
The format is functional, cell-based.

Experiment [6] deals with T4, Alpha-1A adrenergic receptor (Homo sapiens, UniProt P35348).
T4 sequence (P35348 whole entry): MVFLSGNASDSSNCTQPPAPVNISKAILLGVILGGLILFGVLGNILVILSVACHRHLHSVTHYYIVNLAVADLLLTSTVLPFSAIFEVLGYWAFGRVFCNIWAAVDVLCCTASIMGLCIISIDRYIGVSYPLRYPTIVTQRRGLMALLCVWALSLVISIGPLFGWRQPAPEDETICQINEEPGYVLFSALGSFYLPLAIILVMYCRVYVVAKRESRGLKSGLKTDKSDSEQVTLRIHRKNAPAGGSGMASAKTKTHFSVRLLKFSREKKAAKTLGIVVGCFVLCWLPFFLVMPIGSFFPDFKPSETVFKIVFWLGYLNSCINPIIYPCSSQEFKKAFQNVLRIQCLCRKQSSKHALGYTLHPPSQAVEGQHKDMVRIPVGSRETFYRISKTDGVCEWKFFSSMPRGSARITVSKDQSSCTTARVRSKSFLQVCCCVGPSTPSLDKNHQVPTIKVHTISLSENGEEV
The format is functional, cell-based.

Experiment [7] deals with 3',5'-cyclic-AMP phosphodiesterase 4A (Homo sapiens, UniProt P27815). The format is functional.
Chain of 3',5'-cyclic-AMP phosphodiesterase 4A (P27815 whole entry): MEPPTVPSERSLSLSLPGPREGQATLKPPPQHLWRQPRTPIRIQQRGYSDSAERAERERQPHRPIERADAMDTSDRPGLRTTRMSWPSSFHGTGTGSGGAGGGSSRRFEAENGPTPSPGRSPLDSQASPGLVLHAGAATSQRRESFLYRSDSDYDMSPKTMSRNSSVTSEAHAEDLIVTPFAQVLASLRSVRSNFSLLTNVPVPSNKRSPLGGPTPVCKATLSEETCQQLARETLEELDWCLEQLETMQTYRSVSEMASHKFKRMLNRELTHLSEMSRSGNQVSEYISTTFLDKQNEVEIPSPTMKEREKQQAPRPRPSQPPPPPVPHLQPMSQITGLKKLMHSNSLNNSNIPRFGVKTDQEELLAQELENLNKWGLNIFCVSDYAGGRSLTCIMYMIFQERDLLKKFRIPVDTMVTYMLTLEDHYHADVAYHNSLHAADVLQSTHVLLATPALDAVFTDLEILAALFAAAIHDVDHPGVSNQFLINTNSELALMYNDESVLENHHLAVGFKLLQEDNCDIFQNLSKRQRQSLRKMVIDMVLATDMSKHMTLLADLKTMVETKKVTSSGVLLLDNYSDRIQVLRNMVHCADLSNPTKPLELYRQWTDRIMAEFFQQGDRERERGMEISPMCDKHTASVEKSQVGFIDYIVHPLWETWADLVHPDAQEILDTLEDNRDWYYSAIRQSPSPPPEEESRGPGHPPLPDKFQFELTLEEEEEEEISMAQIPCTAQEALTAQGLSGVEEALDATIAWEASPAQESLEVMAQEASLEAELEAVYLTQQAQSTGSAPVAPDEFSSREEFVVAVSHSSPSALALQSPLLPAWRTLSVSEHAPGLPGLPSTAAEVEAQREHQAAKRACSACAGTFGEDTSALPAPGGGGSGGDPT
The target of experiment [8] is Vascular endothelial growth factor receptor 2 (Homo sapiens, UniProt P35968). The format is functional.
Chain of Vascular endothelial growth factor receptor 2 (P35968 whole entry): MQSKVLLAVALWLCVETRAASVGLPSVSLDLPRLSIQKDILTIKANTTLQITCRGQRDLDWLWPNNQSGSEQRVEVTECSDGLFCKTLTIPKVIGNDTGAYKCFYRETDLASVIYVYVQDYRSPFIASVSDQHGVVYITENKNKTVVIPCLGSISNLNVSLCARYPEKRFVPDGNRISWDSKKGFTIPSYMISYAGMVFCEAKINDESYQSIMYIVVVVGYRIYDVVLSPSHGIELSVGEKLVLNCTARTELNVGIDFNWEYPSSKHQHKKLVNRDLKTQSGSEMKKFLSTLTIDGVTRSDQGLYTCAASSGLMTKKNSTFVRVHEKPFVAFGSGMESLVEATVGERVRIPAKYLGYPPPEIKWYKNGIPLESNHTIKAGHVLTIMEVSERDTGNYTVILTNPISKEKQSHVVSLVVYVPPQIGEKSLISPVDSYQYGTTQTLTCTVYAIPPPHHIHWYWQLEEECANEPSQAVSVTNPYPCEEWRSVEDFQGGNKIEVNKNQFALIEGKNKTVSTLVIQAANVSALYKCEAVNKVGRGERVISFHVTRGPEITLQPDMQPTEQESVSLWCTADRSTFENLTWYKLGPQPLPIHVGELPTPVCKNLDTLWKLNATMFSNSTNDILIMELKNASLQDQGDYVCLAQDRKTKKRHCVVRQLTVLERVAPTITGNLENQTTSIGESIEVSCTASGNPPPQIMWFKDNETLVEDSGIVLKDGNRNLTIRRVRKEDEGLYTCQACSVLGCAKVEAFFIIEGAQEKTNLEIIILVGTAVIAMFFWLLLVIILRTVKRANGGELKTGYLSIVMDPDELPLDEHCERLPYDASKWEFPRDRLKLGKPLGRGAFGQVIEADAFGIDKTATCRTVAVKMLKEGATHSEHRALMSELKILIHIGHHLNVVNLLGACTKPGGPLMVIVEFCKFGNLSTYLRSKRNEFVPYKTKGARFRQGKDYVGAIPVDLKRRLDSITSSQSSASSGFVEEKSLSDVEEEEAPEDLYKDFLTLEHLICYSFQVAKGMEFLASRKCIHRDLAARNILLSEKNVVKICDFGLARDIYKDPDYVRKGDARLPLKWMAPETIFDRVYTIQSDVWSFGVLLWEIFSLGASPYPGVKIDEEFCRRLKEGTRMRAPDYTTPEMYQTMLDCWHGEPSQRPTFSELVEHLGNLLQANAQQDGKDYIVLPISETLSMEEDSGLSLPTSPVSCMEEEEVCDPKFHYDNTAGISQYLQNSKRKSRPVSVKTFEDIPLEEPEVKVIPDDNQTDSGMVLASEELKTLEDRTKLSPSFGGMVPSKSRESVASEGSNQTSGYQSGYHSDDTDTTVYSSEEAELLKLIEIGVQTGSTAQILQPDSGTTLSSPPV
Experiment [9] deals with T5, Muscarinic acetylcholine receptor M1 (Homo sapiens, UniProt P11229).
T5 sequence (P11229 whole entry): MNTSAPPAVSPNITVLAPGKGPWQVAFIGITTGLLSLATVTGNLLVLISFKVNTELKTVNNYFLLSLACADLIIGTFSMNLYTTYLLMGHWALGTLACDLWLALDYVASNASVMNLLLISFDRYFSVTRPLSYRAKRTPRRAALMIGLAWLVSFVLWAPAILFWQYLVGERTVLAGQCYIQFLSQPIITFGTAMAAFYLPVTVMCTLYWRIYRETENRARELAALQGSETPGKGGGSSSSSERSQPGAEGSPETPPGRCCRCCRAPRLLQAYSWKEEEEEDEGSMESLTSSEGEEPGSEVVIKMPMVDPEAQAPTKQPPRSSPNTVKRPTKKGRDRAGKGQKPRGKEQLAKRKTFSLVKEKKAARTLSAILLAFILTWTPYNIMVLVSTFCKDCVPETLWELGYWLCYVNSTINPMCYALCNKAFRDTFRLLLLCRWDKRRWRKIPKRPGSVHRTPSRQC
The format is functional, cell-based.
Further: assay procedure not described here.

Chain of Voltage-dependent L-type calcium channel subunit alpha-1C (P22002 whole entry): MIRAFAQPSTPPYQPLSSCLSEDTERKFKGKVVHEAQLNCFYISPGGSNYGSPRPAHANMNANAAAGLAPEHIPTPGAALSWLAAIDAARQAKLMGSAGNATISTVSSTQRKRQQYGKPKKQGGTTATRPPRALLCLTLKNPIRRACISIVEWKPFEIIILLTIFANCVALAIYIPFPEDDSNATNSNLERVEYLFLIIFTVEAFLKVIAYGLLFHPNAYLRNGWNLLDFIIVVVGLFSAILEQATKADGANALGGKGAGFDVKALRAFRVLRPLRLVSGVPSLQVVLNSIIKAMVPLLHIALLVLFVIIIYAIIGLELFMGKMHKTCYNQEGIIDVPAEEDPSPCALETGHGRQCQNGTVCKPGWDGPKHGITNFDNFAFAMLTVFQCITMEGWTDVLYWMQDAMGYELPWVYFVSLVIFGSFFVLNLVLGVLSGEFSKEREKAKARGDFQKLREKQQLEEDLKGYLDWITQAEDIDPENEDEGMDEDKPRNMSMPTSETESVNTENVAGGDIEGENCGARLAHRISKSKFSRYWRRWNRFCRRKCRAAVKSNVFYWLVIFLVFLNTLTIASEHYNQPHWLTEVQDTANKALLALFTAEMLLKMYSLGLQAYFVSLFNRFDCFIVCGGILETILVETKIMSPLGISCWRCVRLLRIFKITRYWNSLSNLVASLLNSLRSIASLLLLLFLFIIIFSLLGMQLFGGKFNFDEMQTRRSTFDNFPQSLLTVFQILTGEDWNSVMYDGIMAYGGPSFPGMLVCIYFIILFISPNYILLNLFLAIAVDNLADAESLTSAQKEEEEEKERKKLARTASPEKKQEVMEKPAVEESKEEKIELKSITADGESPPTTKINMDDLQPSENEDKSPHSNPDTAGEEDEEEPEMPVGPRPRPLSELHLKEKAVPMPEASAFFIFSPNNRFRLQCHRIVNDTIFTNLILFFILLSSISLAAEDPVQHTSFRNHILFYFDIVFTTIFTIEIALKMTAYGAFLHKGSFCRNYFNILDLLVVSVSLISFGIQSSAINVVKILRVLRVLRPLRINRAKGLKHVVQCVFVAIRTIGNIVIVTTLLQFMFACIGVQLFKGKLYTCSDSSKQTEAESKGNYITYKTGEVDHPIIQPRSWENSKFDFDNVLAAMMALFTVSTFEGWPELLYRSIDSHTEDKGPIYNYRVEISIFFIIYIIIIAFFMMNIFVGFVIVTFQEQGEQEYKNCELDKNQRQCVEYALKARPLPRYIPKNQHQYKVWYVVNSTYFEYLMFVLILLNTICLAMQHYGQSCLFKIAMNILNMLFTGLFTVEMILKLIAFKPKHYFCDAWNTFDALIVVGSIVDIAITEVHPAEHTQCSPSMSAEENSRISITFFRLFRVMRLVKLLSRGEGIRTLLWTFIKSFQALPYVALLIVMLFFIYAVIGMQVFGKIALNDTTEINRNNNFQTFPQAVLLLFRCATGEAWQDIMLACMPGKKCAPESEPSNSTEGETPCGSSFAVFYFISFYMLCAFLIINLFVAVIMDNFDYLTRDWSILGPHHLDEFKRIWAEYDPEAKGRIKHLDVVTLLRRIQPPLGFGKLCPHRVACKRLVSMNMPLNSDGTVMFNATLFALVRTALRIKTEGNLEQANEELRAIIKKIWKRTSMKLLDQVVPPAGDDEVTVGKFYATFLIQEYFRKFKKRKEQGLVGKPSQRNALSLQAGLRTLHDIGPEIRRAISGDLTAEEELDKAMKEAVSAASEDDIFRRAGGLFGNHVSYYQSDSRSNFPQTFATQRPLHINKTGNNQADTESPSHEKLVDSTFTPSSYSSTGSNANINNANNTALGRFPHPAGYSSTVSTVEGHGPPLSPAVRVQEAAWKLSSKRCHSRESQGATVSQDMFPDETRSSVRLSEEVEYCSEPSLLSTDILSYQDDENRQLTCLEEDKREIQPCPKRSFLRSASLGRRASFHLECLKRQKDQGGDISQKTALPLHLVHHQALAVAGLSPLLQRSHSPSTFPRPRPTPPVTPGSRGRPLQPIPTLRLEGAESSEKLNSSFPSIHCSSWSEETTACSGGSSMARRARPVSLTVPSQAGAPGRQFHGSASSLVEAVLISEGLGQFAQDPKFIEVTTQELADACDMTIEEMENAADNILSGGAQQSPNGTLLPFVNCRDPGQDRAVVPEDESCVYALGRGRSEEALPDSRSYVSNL

By AC50 is commonly meant the concentration at which the activity in the assay is half-maximal. For `CCCSc1ccc2nc(NC(=O)OC)[nH]c2c1` [ALBENDAZOLE], the AC50 (in experiment [1]; in experiment [2]; at Cannabinoid receptor 1; on Vasopressin V2 receptor) was over 10 µM each time.

On to `C=CCc1ccccc1OCC(O)CNC(C)C` (stereo unspecified) [ALPRENOLOL], for which the half-maximal activity concentration (AC50) is over 0.3 µM on Progesterone receptor; over 30 µM in experiment [1]; 11.5 µM in experiment [3]; over 0.3 µM in experiment [4]; over 0.3 µM in experiment [5]; over 30 µM in experiment [2]. Moreover, the AC50 at Mu-type opioid receptor is over 0.3 µM; on Thromboxane A2 receptor, over 0.3 µM; in experiment [6], 7.53 µM; in experiment [7], over 0.3 µM; in experiment [8] it was over 0.3 µM; in [9], over 0.3 µM. The same compound displayed an AC50 on Vasopressin V2 receptor of over 30 µM.

Consider `Cc1ccc(-c2cc(C(F)(F)F)nn2-c2ccc(S(N)(=O)=O)cc2)cc1` [CELECOXIB], for which the concentration at half-maximal activity (AC50) in experiment [1] is over 10 µM; in experiment [2], over 10 µM; on Cannabinoid receptor 1 it was over 10 µM; at Vasopressin V2 receptor, over 30 µM.

With `CN(C)/N=N/c1[nH]cnc1C(N)=O` [DACARBAZINE], the AC50 (in experiment [1]; in [2]; on Cannabinoid receptor 1; on Vasopressin V2 receptor) was over 10 µM throughout.

`O=C(OCC(O)CO)c1ccccc1Nc1ccnc2cc(Cl)ccc12` (stereo unspecified) [GLAFENINE]: the AC50 at Progesterone receptor is over 30 µM; in experiment [3], over 30 µM; in experiment [4] it was over 30 µM; in [5] it was 4.63 µM; at Mu-type opioid receptor, 28.7 µM; on Thromboxane A2 receptor, over 30 µM. The half-maximal activity concentration (AC50) is over 30 µM in [6], 8.3 µM in experiment [7], 6.96 µM in [8] and over 30 µM in experiment [9].

As for `O=P1(NCCCl)OCCCN1CCCl` (stereo unspecified) [IFOSFAMIDE], the AC50 (in experiment [1]; in experiment [2]; at Cannabinoid receptor 1; at Vasopressin V2 receptor) was over 30 µM throughout.

For the compound `c1ccc([C@H]2CN3CCSC3=N2)cc1` [LEVAMISOLE], the AC50 (in experiment [1]; in experiment [2]; on Cannabinoid receptor 1; in experiment [6]) was over 30 µM each time.

`Clc1ccc(C(c2ccccc2Cl)C(Cl)Cl)cc1` (stereo unspecified) [MITOTANE]: the concentration at half-maximal activity (AC50) in [1] is over 10 µM; in experiment [2], over 10 µM; at Cannabinoid receptor 1, 12.8 µM; at Vasopressin V2 receptor it was over 10 µM.

As to `CC(=O)N[C@@H]1[C@@H](O)[C@H](O)[C@@H](CO)O[C@H]1O` [N-ACETYLGLUCOSAMINE], the AC50 (at Progesterone receptor; in experiment [4]; in experiment [5]; at Mu-type opioid receptor; at Thromboxane A2 receptor; in experiment [7]) was over 30 µM throughout. The half-maximal activity concentration (AC50) in [8] and in experiment [9] was over 30 µM throughout.

Consider `O=C(CCNNC(=O)c1ccncc1)NCc1ccccc1` [NIALAMIDE], for which the half-maximal activity concentration (AC50) at Progesterone receptor is over 30 µM; in experiment [4], over 30 µM; in experiment [5], 1.65 µM; at Mu-type opioid receptor, over 30 µM; at Thromboxane A2 receptor, over 30 µM; in experiment [7] it was over 30 µM. Further, the AC50 in experiment [8] and in experiment [9] was over 30 µM each time.

For `CC[C@H]1[C@@H](O)[C@@H]2[C@H](CC[C@]3(C)[C@@H]([C@H](C)CCC(=O)O)CC[C@@H]23)[C@@]2(C)CC[C@@H](O)C[C@@H]12` [OBETICHOLIC ACID], the AC50 (at Progesterone receptor; in experiment [1]; in [3]; in experiment [4]; in experiment [5]; in experiment [2]) was over 30 µM each time. For the same compound, the AC50 at Mu-type opioid receptor was over 30 µM; on Thromboxane A2 receptor, over 30 µM; in [6] it was 6.3 µM; in experiment [7] it was over 30 µM; in experiment [8], over 30 µM; in experiment [9], over 30 µM. This compound came in with a concentration at half-maximal activity (AC50) on Vasopressin V2 receptor of over 30 µM.

For the compound `CC[N+]1(C)[C@@H]2CC(OC(=O)[C@H](CO)c3ccccc3)C[C@H]1[C@@H]1O[C@@H]12` (stereo partly specified) [OXITROPIUM], the AC50 (at Progesterone receptor; in experiment [4]; in experiment [5]; at Mu-type opioid receptor; on Thromboxane A2 receptor; in experiment [7]) was over 30 µM throughout. Further, the AC50 in experiment [8] and in experiment [9] was over 30 µM in each case.

Consider `CC(C)(C)NC[C@H](O)COc1ccccc1C1CCCC1` [PENBUTOLOL], for which the half-maximal activity concentration (AC50) on Progesterone receptor was over 30 µM; in experiment [4], 5.53 µM; in experiment [5], 26.4 µM; at Mu-type opioid receptor it was 11.9 µM; on Thromboxane A2 receptor it was 16.1 µM; in [7], over 10 µM. Also, the concentration at half-maximal activity (AC50) in experiment [8] and in experiment [9] was over 30 µM throughout.

Turning to `CCCN1C[C@H](CSC)C[C@@H]2c3cccc4[nH]cc(c34)C[C@H]21` [PERGOLIDE], the AC50 in experiment [1] was over 10 µM; in [2], 12.9 µM; on Cannabinoid receptor 1 it was over 10 µM; on Vasopressin V2 receptor it was over 30 µM.

Take `CN(C)S(=O)(=O)c1ccc2c(c1)N(CCCN1CCC(CCO)CC1)c1ccccc1S2` [PIPOTIAZINE]: the AC50 at Progesterone receptor was over 30 µM; in experiment [4], over 30 µM; in experiment [5] it was over 30 µM; on Mu-type opioid receptor it was 3.4 µM; on Thromboxane A2 receptor it was 15.7 µM; in experiment [7], over 30 µM. Further, the AC50 in [8] and in [9] was over 30 µM in each case.

As for `Clc1ccc2nsnc2c1NC1=NCCN1` [TIZANIDINE], the AC50 in experiment [1] is over 10 µM; in experiment [2], over 10 µM; at Cannabinoid receptor 1 it was over 10 µM; on Vasopressin V2 receptor it was over 30 µM.

As for `CCOC(=O)[C@H](CCc1ccccc1)N[C@@H](C)C(=O)N1[C@H](C(=O)O)C[C@H]2CCCC[C@@H]21` [TRANDOLAPRIL], the AC50 (on Progesterone receptor; in [4]; in experiment [5]; on Mu-type opioid receptor; on Thromboxane A2 receptor; in experiment [7]) was over 30 µM throughout. For the same compound, the concentration at half-maximal activity (AC50) in experiment [8] and in [9] was over 30 µM each time.
